Assay results as given in PMC3367201 (Nucleic Acids Research, 2012).

Target: Hp ND-AspRS (non-discriminating aspartyl-tRNA synthetase) (Helicobacter pylori, UniProt P56459)
Assay: inhibition of tRNA aminoacylation with […] L-Asp
Assay type: biochemical

Sequence of Hp ND-AspRS (non-discriminating aspartyl-tRNA synthetase) (P56459 whole entry): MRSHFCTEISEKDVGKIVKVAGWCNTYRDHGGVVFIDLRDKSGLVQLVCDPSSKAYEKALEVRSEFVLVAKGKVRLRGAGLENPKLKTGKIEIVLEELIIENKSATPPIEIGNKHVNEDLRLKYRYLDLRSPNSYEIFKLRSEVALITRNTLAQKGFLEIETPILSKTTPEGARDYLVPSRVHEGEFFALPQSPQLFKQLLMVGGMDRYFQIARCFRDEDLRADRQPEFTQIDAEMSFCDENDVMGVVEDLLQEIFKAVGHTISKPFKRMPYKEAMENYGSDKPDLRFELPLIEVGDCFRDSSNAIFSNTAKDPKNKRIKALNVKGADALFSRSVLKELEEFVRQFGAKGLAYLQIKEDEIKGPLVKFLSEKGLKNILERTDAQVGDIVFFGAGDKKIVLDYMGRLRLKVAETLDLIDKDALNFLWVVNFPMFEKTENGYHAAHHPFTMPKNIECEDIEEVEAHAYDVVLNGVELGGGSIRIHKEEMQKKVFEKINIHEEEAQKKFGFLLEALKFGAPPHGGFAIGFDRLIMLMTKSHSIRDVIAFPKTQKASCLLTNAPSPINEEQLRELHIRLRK

Nc1ncnc2c1ncn2[C@@H]1O[C@H](COP(=O)(O)OC[C@@H](N)CC(=O)O)[C@@H](O)[C@H]1O [Asp-ol-AMP]
Ki: 8 µM
